Measured values as given in US10239849B2 (Merck Sharp & Dohme Corp., priority 2015, dated 2019).

Columns and labels:
[1] = target: T1, glutathione-S-transferase (GST) tagged LXRbeta LBD (ligand binding domain) (Homo sapiens, UniProt P55055); experiment: LanthaScreen TR-FRET Liver X Receptor Coactivator Assay, LXR beta-LBD; format: biochemical; conditions: for Emax: efficacy in relation to reference dual agonist T1317, read-out: LXR beta activity at max dose (%) (Emax); for EC50: potency (Inflection Point) of co-activator recruitment, TR-FRET, read-out: LXR beta IP
T1 construct: purchased Invitrogen pv4658.pps
T1 sequence (P55055 222-460 limits assumed): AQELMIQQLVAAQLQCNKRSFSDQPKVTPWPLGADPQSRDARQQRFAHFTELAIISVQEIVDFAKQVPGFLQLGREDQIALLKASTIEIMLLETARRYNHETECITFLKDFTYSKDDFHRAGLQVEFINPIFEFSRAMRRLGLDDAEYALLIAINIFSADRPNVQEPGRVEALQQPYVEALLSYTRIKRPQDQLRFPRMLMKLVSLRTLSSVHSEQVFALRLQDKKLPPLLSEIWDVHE
Summary of the method: (§1)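 Measures ligand-driven coactivator peptide binding by time-resolved energy transfer between terbium-tagged anti-GST antibody and fluorescein-labelled peptide. Incubation is at room temperature.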

[2] = target: T2, glutathione-S-transferase (GST) tagged LXRalpha LBD (ligand binding domain) (Homo sapiens, UniProt Q13133); experiment: LanthaScreen TR-FRET Liver X Receptor Coactivator Assay, LXR alpha-LBD; format: biochemical; conditions: for Emax: efficacy in relation to reference dual agonist T1317, read-out: LXR alpha activity at max dose (%) (Emax); for EC50 / LXR alpha IP (nM): potency (Inflection Point) of co-activator recruitment, TR-FRET; for EC50: read-out: LXR alpha IP
T2 construct: purchased Invitrogen pv4655
T2 sequence (Q13133 209-447 limits assumed): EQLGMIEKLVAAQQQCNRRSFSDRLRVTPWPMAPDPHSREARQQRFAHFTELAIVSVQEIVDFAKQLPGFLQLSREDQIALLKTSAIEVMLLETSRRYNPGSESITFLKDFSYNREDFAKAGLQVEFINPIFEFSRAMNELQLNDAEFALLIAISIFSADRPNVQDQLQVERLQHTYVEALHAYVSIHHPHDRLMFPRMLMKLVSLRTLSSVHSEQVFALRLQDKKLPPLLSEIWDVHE
Summary of the method: as §1

Emax [1] [%]	EC50 [1] [nM]	Emax [2] [%]	EC50 [2] [nM]	LXR alpha IP (nM) [2]	SMILES
80	40	68	1260	–	CN(CCO)C(=O)c1ccc(-c2cnc(N3CCN(C(=O)OC(C)(C)C)CC3)c(C#N)c2)cc1Cl [Example 5-1, tert-butyl-4-(5-{3-chloro-4-[(2-hydroxyethyl)(methyl)carbamoyl]phenyl}-3-cyanopyridin-2-yl)piperazine-1-carboxylate]
94	94	66	2030	–	CC(C)(C)OC(=O)N1CCN(c2ncc(-c3ccc(C(N)=O)c(Cl)c3)cc2C#N)CC1 [Example 5-2, tert-butyl 4-[5-(4-carbamoyl-3-chlorophenyl)-3-cyanopyridin-2-yl]piperazine-1-carboxylate]
82	176	76	33700	–	CNC(=O)c1ccc(-c2cnc(N3CCN(C(=O)OC(C)(C)C)CC3)c(C#N)c2)cc1Cl [Example 5-3, tert-butyl 4-{5-[3-chloro-4-(methylcarbamoyl)phenyl]-3-cyanopyridin-2-yl}piperazine-1-carboxylate]
71	1520	39	21200	–	CC(C)(C)OC(=O)N1CCN(c2ncc(-c3ccc(C(=O)N4CCC4)c(Cl)c3)cc2C#N)CC1 [Example 5-4, tert-butyl 4-{5-[4-(azetidin-1-ylcarbonyl)-3-chlorophenyl]-3-cyanopyridin-2-yl}piperazine-1-carboxylate]
76	88	54	2680	–	CCN(C)C(=O)c1ccc(-c2cnc(N3CCN(C(=O)OC(C)(C)C)CC3)c(C#N)c2)cc1Cl [Example 5-5, tert-butyl 4-(5-{3-chloro-4-[ethyl(methyl)carbamoyl]phenyl}-3-cyanopyridin-2-yl)piperazine-1-carboxylate]
77	435	43	8780	–	CN(C)NC(=O)c1ccc(-c2cnc(N3CCN(C(=O)OC(C)(C)C)CC3)c(C#N)c2)cc1Cl [Example 5-6, tert-butyl 4-(5-{3-chloro-4-[(2,2-dimethylhydrazino)carbonyl]phenyl}-3-cyanopyridin-2-yl)piperazine-1-carboxylate]
69	82	39	2660	–	CON(C)C(=O)c1ccc(-c2cnc(N3CCN(C(=O)OC(C)(C)C)CC3)c(C#N)c2)cc1Cl [Example 5-7, tert-butyl 4-(5-{3-chloro-4-[methoxy(methyl)carbamoyl]phenyl}-3-cyanopyridin-2-yl)piperazine-1-carboxylate]

Continued, compound first:

SMILES	Emax [1] [%]	EC50 [1] [nM]	Emax [2] [%]	EC50 [2] [nM]	LXR alpha IP (nM) [2]
CN(C)C(=O)c1ccc(-c2ccc(N3CCN(C(=O)c4ccccc4Cl)CC3)c(Cl)c2)cc1Cl [Example 4-4, 3,3′-dichloro-4′-{4-[(2-chlorophenyl)carbonyl]piperazin-1-yl}-N,N-dimethylbiphenyl-4-carboxamide]	75	98	44	1310	–
CN(C)C(=O)c1ccc(-c2ccc(N3CCN(C(=O)c4c(F)cccc4Cl)CC3)c(Cl)c2)cc1Cl [Example 4-5, 3,3′-dichloro-4′-{4-[(2-chloro-6-fluorophenyl)carbonyl]piperazin-1-yl}-N,N-dimethylbiphenyl-4-carboxamide]	88	39	63	618	–
CN(C)C(=O)c1ccc(-c2cc(Cl)c(N3CCN(C(=O)c4ccccc4Cl)CC3)c(Cl)c2)cc1Cl [Example 4-6, 3,3′,5′-trichloro-4′-{4-[(2-chlorophenyl)carbonyl]piperazin-1-yl}-N,N-dimethylbiphenyl-4-carboxamide]	39	188	16	1600	–
CN(C)C(=O)c1ccc(-c2ccc(N3CCN(C(=O)c4c(F)cccc4C(F)(F)F)CC3)c(Cl)c2)cc1Cl [Example 4-7, 3,3′-dichloro-4′-(4-{[2-fluoro-6-(trifluoromethyl)phenyl]carbonyl}piperazin-1-yl)-N,N-dimethylbiphenyl-4-carboxamide]	83	106	64	1280	–
CN(C)C(=O)c1ccc(-c2ccc(N3CCN(S(=O)(=O)c4c(Cl)cccc4Cl)CC3)c(Cl)c2)cc1Cl [Example 4-8, 3,3′-dichloro-4′-{4-[(2,6-dichlorophenyl)sulfonyl]piperazin-1-yl}-N,N-dimethylbiphenyl-4-carboxamide]	101	2820	38	10500	–
CN(C)C(=O)c1ccc(-c2ccc(N3CCN(S(=O)(=O)c4c(Cl)cccc4C(F)(F)F)CC3)c(Cl)c2)cc1Cl [Example 4-9, 3,3′-dichloro-4′-(4-{[2-chloro-6-(trifluoromethyl)phenyl]sulfonyl}piperazin-1-yl)-N,N-dimethylbiphenyl-4-carboxamide]	96	597	51	4130	–
CN(C)C(=O)c1ccc(-c2cc(Cl)c(N3CCN(S(=O)(=O)c4c(Cl)cccc4Cl)CC3)c(Cl)c2)cc1Cl [Example 4-10, 3,3′,5′-trichloro-4′-{4-[(2,6-dichlorophenyl)sulfonyl]piperazin-1-yl}-N,N-dimethylbiphenyl-4-carboxamide]	77	94	30	1260	–
CN(C)C(=O)c1ccc(-c2ccc(N3CCN(C(=O)OC(C)(C)C)CC3)cc2)cc1Cl [Example 4-11, tert-butyl 4-[3′-chloro-4′-(dimethylcarbamoyl)biphenyl-4-yl]piperazine-1-carboxylate]	82	238	55	5470	–
CN(C)C(=O)c1ccc(-c2ccc(N3CCN(C(=O)c4c(F)cccc4C(F)(F)F)CC3)cc2)cc1Cl [Example 4-12, 3-chloro-4′-(4-{[2-fluoro-6-(trifluoromethyl)phenyl]carbonyl}piperazin-1-yl)-N,N-dimethylbiphenyl-4-carboxamide]	83	881	20	–	No IP
CN(C)C(=O)c1ccc(-c2ccc(N3CCN(S(=O)(=O)c4c(Cl)cccc4Cl)CC3)cc2)cc1Cl [Example 4-13, 3-chloro-4′-{4-[(2,6-dichlorophenyl)sulfonyl]piperazin-1-yl}-N,N-dimethylbiphenyl-4-carboxamide]	97	380	29	5730	–
CN(C)C(=O)c1ccc(-c2ccc(N3CCN(S(=O)(=O)c4c(Cl)cccc4C(F)(F)F)CC3)cc2)cc1Cl [Example 4-14, 3-chloro-4′-(4-{[2-chloro-6-(trifluoromethyl)phenyl]sulfonyl}piperazin-1-yl)-N,N-dimethylbiphenyl-4-carboxamide]	88	549	25	9810	–
CN(C)C(=O)c1ccc(-c2ccc(N3CCN(C(=O)c4ccccc4Cl)CC3)cc2)cc1Cl [Example 4-15, 3-chloro-4′-{4-[(2-chlorophenyl)carbonyl]piperazin-1-yl}-N,N-dimethylbiphenyl-4-carboxamide]	85	1670	16	–	No IP
CN(C)C(=O)c1ccc(-c2ccc(N3CCN(C(=O)c4c(F)cccc4F)CC3)cc2)cc1Cl [Example 4-16, 3-chloro-4′-{4-[(2,6-difluorophenyl)carbonyl]piperazin-1-yl}-N,N-dimethylbiphenyl-4-carboxamide]	77	4160	19	–	No IP
CN(C)C(=O)c1ccc(-c2ccc(N3CCN(C(=O)c4ccccc4C(F)(F)F)CC3)cc2)cc1Cl [Example 4-17, 3-chloro-N,N-dimethyl-4′-(4-{[2-(trifluoromethyl)phenyl]carbonyl}piperazin-1-yl)biphenyl-4-carboxamide]	80	1390	9	–	No IP
CC(C)C(O)(C(=O)N1CCN(c2ccc(-c3ccc(C(=O)N(C)C)c(Cl)c3)cc2)CC1)C(F)(F)F (centres unmarked) [Example 4-18, 3-chloro-4′-{4-[2-hydroxy-3-methyl-2-(trifluoromethyl)butanoyl]piperazin-1-yl}-N,N-dimethylbiphenyl-4-carboxamide]	65	259	20	1290	–
CN(C)C(=O)c1ccc(-c2ccc(N3CCN(C(=O)c4c(F)cccc4Cl)CC3)cc2)cc1Cl [Example 4-19, 3-chloro-4′-{4-[(2-chloro-6-fluorophenyl)carbonyl]piperazin-1-yl}-N,N-dimethylbiphenyl-4-carboxamide]	93	1270	20	16900	–
